Data on 74 compounds can be found in the OPERA property sets (Mansouri et al. 2018).

Molecules are shown by their SMILES.

Conditions in the first series: not given
In turn, `CC1SC(C)SC(C)S1` (centres undefined) yielded a boiling point of 246 °C and a melting point of 101 °C. For `O=C(CCl)C(Cl)Cl`, the boiling point was 172 °C. `COc1ccccc1C#N` had a boiling point of 256 °C and a melting point of 24.5 °C. With `O=[N+]([O-])c1ccc(C=NO)o1`, the melting point worked out at 163 °C. The compound `C1CC2CCC1C2` registered a boiling point of 105 °C and a melting point of 87.5 °C. Compound `O=C1CN=C(c2ccccc2Cl)c2cc([N+](=O)[O-])ccc2N1` gave a melting point of 238 °C. `O=C1c2ccccc2C(=O)C1C(=O)C(c1ccccc1)c1ccc(Cl)cc1` (centres undefined): the log10 vapour pressure (mmHg) is -9.12 and the melting point amounted to 140 °C. Compound `COc1cccc(CC(C)=O)c1` showed a boiling point of 259 °C. Consider `CC(C)C(=O)OCC(C)(C)C(O)C(C)C` (centres undefined), for which the ready biodegradability result is “readily biodegradable”. The compound `CCCCCC[Si](Cl)(Cl)Cl` yielded a boiling point of 190 °C.

As to `C=COCCCCCC`, the boiling point worked out at 143 °C. Turning to `CCOC(=O)C1OC1(C)c1ccccc1` (centres undefined), the boiling point is 274 °C. With `COc1ccc([N+](=O)[O-])cn1`, the melting point came to 108 °C. `CCOC(=O)C1(C(=O)OCC)CC1` displayed a boiling point of 216 °C.

In turn, `O=[N+]([O-])c1ccccc1F` came in with a melting point of -6 °C. `Clc1cc(Cl)c(-c2c(Cl)c(Cl)cc(Cl)c2Cl)c(Cl)c1Cl` yielded a log10 Henry constant (atm·m³/mol) of -4.77. The compound `Cc1ccc2cc(N(C)C)ccc2n1` had a boiling point of 319 °C and a melting point of 101 °C. Turning to `CCOC(=O)C(Cc1ccccc1)C(=O)OCC`, the boiling point amounted to 300 °C. `CCOC(=O)C1(c2ccccc2)CCN(CCc2ccc(N)cc2)CC1` gave a melting point of 83 °C.

In the case of `CCN(CC)CC#CCOC(=O)C(O)(c1ccccc1)C1CCCCC1.Cl` (centres undefined), the melting point was determined as 130 °C. `CCCCCC(=O)Cl` showed a boiling point of 153 °C and a melting point of -87 °C. `C[C@]12CC[C@H]3[C@@H](CCC4=C(Cl)C(=O)CC[C@@]43C)[C@@H]1CC[C@@H]2O` returned a melting point of 189 °C. In turn, `O=C1c2ccccc2C(=O)c2c(NCCO)ccc(NCCO)c21` had a melting point of 248 °C. In turn, `CC(Cl)(CCl)CCl` displayed a boiling point of 162 °C. As for `CCOC(=O)C(=O)Cl`, the boiling point turned out to be 137 °C and the log10 vapour pressure (mmHg) worked out at 0.882. Compound `Oc1ccccc1C=Nc1ccccc1` registered a melting point of 49.5 °C. With `O=C(O)[C@H]1CC[C@H](C(=O)O)CC1`, the melting point came to 312 °C.

`N#Cc1ccc(N)cc1` showed a melting point of 84 °C. Compound `CCCCCCCCCCCCCC1CCCCC1` displayed a boiling point of 346 °C, a log10 vapour pressure (mmHg) of -5.04 and a melting point of 18.5 °C. For the compound `CCCCCCCCCCCCCC(CCCCCCCCCC)CCCCCCCCCC`, the melting point came out at 10.8 °C. Take `C=CCC(CC=C)(C(=O)OCC)C(=O)OCC`: the boiling point was found to be 244 °C. In turn, `C[C@@H](N)[C@@H](O)c1ccccc1` came in with a melting point of 101 °C. Take `CCCNc1ccccc1`: the boiling point stood at 222 °C. Compound `CON` gave a boiling point of 49.5 °C and a log10 vapour pressure (mmHg) of 2.46. In turn, `C=C1CCCCC1` gave a boiling point of 102 °C, a log10 vapour pressure (mmHg) of 1.6 and a melting point of -107 °C. With `COC(C)(C)C`, the boiling point is 55.2 °C, the log10 Henry constant (atm·m³/mol) was -3.23, the log10 Koa stood at 2.58 and the log10 vapour pressure (mmHg) turned out to be 2.4. In addition, the melting point was -109 °C and the ready biodegradability entry is “not readily biodegradable”. As for `CCCCOC(=O)COc1cc(Cl)c(Cl)cc1Cl`, the log10 vapour pressure (mmHg) was -4.82 and the melting point was 28.5 °C. Consider `CCC(C)OC(=O)CCC(=O)OC(C)CC` (centres undefined), for which the boiling point came to 256 °C.

For the compound `Cc1ccc(S)cc1`, the boiling point is 195 °C, the log10 vapour pressure (mmHg) is -0.191 and the melting point was 43 °C. On to `N#CCC(=O)NN`, for which the melting point came to 114 °C.

For `C/C=C(/C)c1ccccc1`, the boiling point amounted to 195 °C. Consider `Cc1cccc2cc[nH]c12`, for which the boiling point came out at 266 °C and the melting point was 85 °C.

`Cc1ccc(NC(=S)Nc2ccc(C)cc2)cc1` came in with a melting point of 183 °C. The compound `C=CC(C)(CCC=C(C)C)OC(C)=O` (centres undefined) returned a boiling point of 220 °C and a log10 vapour pressure (mmHg) of -0.955.

Turning to `C[C@@H]1C[C@H]2[C@@H]3CCC4=CC(=O)C=C[C@]4(C)[C@@]3(F)[C@@H](O)C[C@]2(C)[C@H]1C(=O)CO`, the melting point is 217 °C. Take `Cc1ccc(S(=O)(=O)c2coc(S(N)(=O)=O)c2)cc1`: the melting point amounted to 185 °C.

In turn, `FC(F)=C(F)C(F)(F)C(F)(F)C(F)(F)C(F)(F)F` displayed a boiling point of 57 °C. The compound `O=C(O)/C=C/CCCCCCCCC(=O)O` came in with a melting point of 166 °C. `c1ccc2c(c1)ccc1ncccc12`: the boiling point was 352 °C, the log10 Koc (L/kg) amounted to 4.64, the log10 vapour pressure (mmHg) was -4.25 and the melting point is 94 °C. `O=C(O)c1ccc(CBr)cc1`: the melting point is 230 °C. On to `C=CCc1ccc(O)c(OC)c1`, for which the boiling point stood at 253 °C, the log10 vapour pressure (mmHg) is -1.65 and the melting point was -9.1 °C. `Clc1ccc(Oc2cccc(Cl)c2)cc1` had a log10 vapour pressure (mmHg) of -3.19. `Clc1cc2c(cc1Cl)Oc1cc(Br)c(Br)cc1O2` came in with a log10 vapour pressure (mmHg) of -8.33 and a melting point of 316 °C. For `C=CC(OCC)OCC`, the boiling point was determined as 124 °C. For `Nc1cc(Cl)c(O)c(Cl)c1`, the melting point was 168 °C. In the case of `COC(=O)c1ccccc1S(=O)(=O)NC(=O)Nc1nc(C)cc(C)n1`, the log10 Koc (L/kg) was 1.62 and the melting point is 204 °C. Take `CCCCCCCCOC(=O)CC`: the boiling point was determined as 228 °C and the melting point is -42.6 °C. As for `CN(C)CCN`, the boiling point turned out to be 105 °C and the ready biodegradability entry is recorded as “not readily biodegradable”. As for `NNc1ccc(S(=O)(=O)O)cc1`, the melting point turned out to be 286 °C. For the compound `FC(F)(F)I`, the boiling point is -22.5 °C. Compound `CCN(CC)C(=O)c1ccc(O)c(OC)c1` gave a melting point of 95 °C. `C=CI` gave a boiling point of 56 °C. For `c1ccc(Sc2ccccc2)cc1`, the boiling point stood at 296 °C, the log10 vapour pressure (mmHg) was -2.12 and the melting point was -25.9 °C. Consider `CCCCC(CC)C(C)C` (centres undefined), for which the boiling point amounted to 163 °C. For the compound `CCCCCCCCCCCCCC(=O)O`, the boiling point was 326 °C, the log10 vapour pressure (mmHg) is -5.85 and the melting point was found to be 53.9 °C. Compound `CCCCCCCCCCCC=O` yielded a log10 vapour pressure (mmHg) of -1.82 and a melting point of 44.5 °C. In turn, `CC(C)CC(=O)OC(C)C` gave a boiling point of 142 °C. In turn, `Cc1ccnc(C)n1` displayed a boiling point of 150 °C and a melting point of -4 °C. The compound `O=c1oc(=O)c2ccccc2c2ccccc12` returned a melting point of 217 °C. For `C=C1C/C(=C/C)C(=O)O[C@@H]2CCN3CC=C(COC(=O)[C@]1(C)O)[C@H]23`, the melting point stood at 218 °C. Consider `CCCCC1C(=O)NC(=O)N(C2CCCCC2)C1=O` (centres undefined), for which the melting point was determined as 84 °C. On to `COc1cc2c(c3oc(=O)c4c(c13)CCC4=O)[C@@H]1CCO[C@@H]1O2`, for which the melting point is 288 °C. `CC(C)c1ncc([N+](=O)[O-])n1C` came in with a melting point of 60 °C. Compound `COc1cc(S(C)=O)ccc1-c1nc2ncccc2[nH]1` (centres undefined) displayed a melting point of 204 °C.

The same series, now with this note: fish.
The compound `Clc1cc(Cl)c(-c2c(Cl)c(Cl)cc(Cl)c2Cl)c(Cl)c1Cl` returned a log10 biotransformation half-life (days) of 2.46. As for `COC(C)(C)C`, the log10 BCF is 0.18 and the log10 biotransformation half-life (days) was -0.88.
